Assay results published in PubChem BioAssay AID256 (DTP/NCI, 2004).
Where “and” joins values, the source holds several entries; their conditions need not be identical. Equal values may be shown once. Inconclusive results and toxic doses are left out. The calls were made as follows: active = survival T/C of 150% or more; inactive = T/C below 125% in these data.

Test system: CD2F1 mice, L1210 leukemia ip, survival T/C
Test: NCI In Vivo Anticancer Drug Screen. Data for tumor model L1210 Leukemia (intraperitoneal) in CD2F1 (CDF1) mice
Settings: endpoint: mean survival time, higher = longer survival
Procedure, shortened: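 Antitumor effect is scored in animals hosting a serially transplanted tumor. Values compare compound-dosed animals against vehicle-only controls as a simple quotient.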

[1] = dose: 25.0 mg/kg/injection, schedule: Q01DX009 (ip), vehicle: saline with Tween-80
[2] = dose: 50.0 mg/kg/injection, schedule: Q01DX009 (ip), vehicle: saline with Tween-80
[3] = dose: 100.0 mg/kg/injection, schedule: Q01DX009 (ip), vehicle: saline with Tween-80
[4] = dose: 200.0 mg/kg/injection, schedule: Q01DX009 (ip), vehicle: saline with Tween-80
[5] = dose: 100.0 mg/kg/injection, schedule: Q04DX002 (ip), vehicle: saline with Tween-80
[6] = dose: 200.0 mg/kg/injection, schedule: Q04DX002 (ip), vehicle: saline with Tween-80
[7] = dose: 400.0 mg/kg/injection, schedule: Q04DX002 (ip), vehicle: saline with Tween-80
[8] = dose: 100.0 mg/kg/injection, schedule: Q04DX003 (ip), vehicle: saline with Tween-80
[9] = dose: 200.0 mg/kg/injection, schedule: Q04DX003 (ip), vehicle: saline with Tween-80
[10] = dose: 50.0 mg/kg/injection, schedule: Q04DX003 (ip), vehicle: saline
[11] = dose: 100.0 mg/kg/injection, schedule: Q04DX003 (ip), vehicle: saline
[12] = dose: 200.0 mg/kg/injection, schedule: Q04DX003 (ip), vehicle: saline
[13] = dose: 100.0 mg/kg/injection, schedule: Q01DX001 (ip), vehicle: saline
[14] = dose: 100.0 mg/kg/injection, schedule: Q01DX009 (ip), vehicle: saline
[15] = dose: 200.0 mg/kg/injection, schedule: Q01DX001 (ip), vehicle: saline
[16] = dose: 400.0 mg/kg/injection, schedule: Q04DX003 (ip), vehicle: saline with Tween-80
[17] = dose: 100.0 mg/kg/injection, schedule: Q01DX001 (ip), vehicle: saline with Tween-80
[18] = dose: 200.0 mg/kg/injection, schedule: Q01DX001 (ip), vehicle: saline with Tween-80

Measured: T/C

CCOC(=O)Cc1c(C)[nH]c2c(Br)cc(C)c(C)c12
inactive: dose: 100.0 mg/kg/injection, schedule: Q01DX001 (ip), vehicle: other 98 % of control | dose: 200.0 mg/kg/injection, schedule: Q01DX001 (ip), vehicle: other 89 % of control | dose: 400.0 mg/kg/injection, schedule: Q01DX001 (ip), vehicle: other 110 % of control

COc1cc(C(C)(C)C)cc(OC)c1C(O)(c1c(OC)cc(C(C)(C)C)cc1OC)c1c(OC)cc(C(C)(C)C)cc1OC
inactive: dose: 6.25 mg/kg/injection, schedule: Q01DX009 (ip), vehicle: saline with Tween-80 100 % of control | dose: 12.5 mg/kg/injection, schedule: Q01DX009 (ip), vehicle: saline with Tween-80 104 % of control | [1] 104 % of control | [2] 102 % of control | [3] 105 % of control | [4] 88 % of control

COc1cc(NC(=O)Nc2ccccc2C)c(OC)cc1Cl
inactive: [5] 90 % of control | [6] 90 % of control | [7] 86 % of control

CCOC(=O)C(O)(CC)CCC(C)C (stereo not given)
inactive: [8] 105 % of control | [9] 86 % of control

CCCCN(CCCC)c1cc(C(C)=O)c2ccccc2n1
inactive: [10] 102 % of control | [11] 102 % of control | [12] 102 % of control

CCCCCCCCCCCCCCCCCCN=C(N)N
inactive: dose: 100.0 mg/kg/injection, schedule: Q01DX001 (ip), vehicle: Klucel (hydroxypropylcellulose) (HPC) 103 % of control | dose: 200.0 mg/kg/injection, schedule: Q01DX001 (ip), vehicle: Klucel (hydroxypropylcellulose) (HPC) 96 % of control | dose: 400.0 mg/kg/injection, schedule: Q01DX001 (ip), vehicle: Klucel (hydroxypropylcellulose) (HPC) 88 % of control

COC(=O)CCN(c1ccccc1)S(=O)(=O)c1ccc(C)cc1
inactive: dose: 100.0 mg/kg/injection, schedule: Q01DX009 (ip), vehicle: Klucel (hydroxypropylcellulose) (HPC) 98 % of control | dose: 200.0 mg/kg/injection, schedule: Q01DX009 (ip), vehicle: Klucel (hydroxypropylcellulose) (HPC) 100 % of control | dose: 400.0 mg/kg/injection, schedule: Q01DX009 (ip), vehicle: Klucel (hydroxypropylcellulose) (HPC) 98 % of control

N=c1ccccn1CCO
inactive: dose: 75.0 mg/kg/injection, schedule: Q01DX001 (ip), vehicle: saline 100 % of control | dose: 150.0 mg/kg/injection, schedule: Q01DX001 (ip), vehicle: saline 108 % of control

CCN(CC)CCNCc1c[nH]c(=S)[nH]c1=O
inactive: [11] 103 % of control | [12] 97 % of control | dose: 400.0 mg/kg/injection, schedule: Q04DX003 (ip), vehicle: saline 101 % of control

O=C1[O][Sb]23[O]C(=O)C([O]2)C(O)C(O)C2[O][Sb]4([O]C(=O)C([O]4)C(O)C(O)C1[O]3)[O]C2=O (stereo not given)
inactive: dose: 25.0 mg/kg/injection, schedule: Q01DX009 (ip), vehicle: saline 95 % of control | dose: 50.0 mg/kg/injection, schedule: Q01DX001 (ip), vehicle: saline 97 % of control | dose: 50.0 mg/kg/injection, schedule: Q01DX009 (ip), vehicle: saline 95 % of control | [10] 87 % of control | [13] 101 % of control | [14] 98 % of control | [11] 91 % of control | [15] 96 % of control

Cc1ccc2[nH]c(-c3ccccc3)c(-c3ccccc3)c2c1
inactive: [8] 102 % of control | [9] 94 % of control | [16] 96 % of control

O=P(OCCCCCl)(OCCCCCl)C(Cl)Cl
inactive: [13] 100 % of control | [15] 100 % of control | dose: 400.0 mg/kg/injection, schedule: Q01DX001 (ip), vehicle: saline 108 % of control

O=C(NC(=S)Nc1cc(Cl)ccc1Cl)c1cccc(Br)c1
inactive: [2] 100 % of control | [17] 100 % of control | [3] 101 % of control and 105 % of control and 106 % of control | [5] 89 % of control and 95 % of control | [8] 94 % of control | [18] 97 % of control | [4] 98 % of control and 101 % of control | [6] 90 % of control and 95 % of control | [9] 90 % of control | dose: 400.0 mg/kg/injection, schedule: Q01DX001 (ip), vehicle: saline with Tween-80 100 % of control | dose: 400.0 mg/kg/injection, schedule: Q01DX009 (ip), vehicle: saline with Tween-80 115 % of control (2×) and 105 % of control | [7] 92 % of control and 95 % of control | [16] 86 % of control

COC1(c2ccccc2)CN(Cc2ccccc2)CCO1 (stereo not given)
inactive: [8] 103 % of control | [9] 100 % of control | [16] 106 % of control

CC1=C2C(=CC(C)(CO)C2O)C(O)C(C)(O)C12CC2 (stereo not given)
inactive: dose: 1.56 mg/kg/injection, schedule: Q01DX005 (ip), vehicle: water 94 % of control | dose: 3.13 mg/kg/injection, schedule: Q01DX005 (ip), vehicle: water 87 % of control | dose: 6.25 mg/kg/injection, schedule: Q01DX005 (ip), vehicle: water 89 % of control | dose: 12.5 mg/kg/injection, schedule: Q01DX005 (ip), vehicle: water 94 % of control | dose: 25.0 mg/kg/injection, schedule: Q01DX005 (ip), vehicle: water 100 % of control

CCOC(=O)N[C@H]1CCc2cc(OC)c(OC)c(OC)c2-c2ccc(SC)c(=O)cc21
inactive: dose: 0.38 mg/kg/injection, schedule: Q01DX009 (ip), vehicle: other 103 % of control | dose: 0.75 mg/kg/injection, schedule: Q01DX009 (ip), vehicle: other 108 % of control | dose: 1.5 mg/kg/injection, schedule: Q01DX009 (ip), vehicle: other 114 % of control

CCCN(CCC)C(=O)c1cccnc1
inactive: [14] 92 % of control | dose: 200.0 mg/kg/injection, schedule: Q01DX009 (ip), vehicle: saline 92 % of control | dose: 400.0 mg/kg/injection, schedule: Q01DX009 (ip), vehicle: saline 97 % of control

Cc1[nH]c2ccccc2c1C(c1cc(Cl)cc(Cl)c1O)c1c(C)[nH]c2ccccc12
inactive: [1] 88 % of control | [2] 86 % of control | [3] 86 % of control | [4] 86 % of control

Cc1ccc(S(=O)(=O)OC2(c3cc(C(F)(F)F)cc(C(F)(F)F)c3)C3CCC2CC3)cc1 (stereo not given)
inactive: dose: 37.5 mg/kg/injection, schedule: Q04DX002 (ip), vehicle: saline with Tween-80 102 % of control | dose: 75.0 mg/kg/injection, schedule: Q04DX002 (ip), vehicle: saline with Tween-80 94 % of control | dose: 150.0 mg/kg/injection, schedule: Q04DX002 (ip), vehicle: saline with Tween-80 98 % of control | dose: 300.0 mg/kg/injection, schedule: Q04DX002 (ip), vehicle: saline with Tween-80 102 % of control

O.O=[N+]([O-])O.[NH-]C1CCCCC1[NH-].[Pt+2] (stereo not given)
inactive: dose: 0.32 mg/kg/injection, schedule: Q04DX003 (ip), vehicle: other 113 % of control | dose: 0.63 mg/kg/injection, schedule: Q04DX003 (ip), vehicle: other 119 % of control

CCOC(=O)C(C(=O)OCC)C1CCS(=O)(=O)C1 (stereo not given)
inactive: [8] 95 % of control | [9] 97 % of control | [16] 95 % of control

O=C1C(Br)=CC2C1C1C=CC2(Br)C1=O (stereo not given)
inactive: dose: 50.0 mg/kg/injection, schedule: Q01DX001 (ip), vehicle: saline with Tween-80 109 % of control | [17] 103 % of control | [18] 101 % of control

CCC1(O)CC2CN(CCc3c([nH]c4ccccc34)C(C(=O)OC)(c3cc4c(cc3OC)N(C)C3C(O)(C(=O)NCCO)C(O)C5(CC)C=CCN6CCC43C65)C2)C1 (stereo not given)
inactive: dose: 0.36 mg/kg/injection, schedule: Q01DX009 (ip), vehicle: water 110 % of control | dose: 0.52 mg/kg/injection, schedule: Q04DX003 (ip), vehicle: water 108 % of control | dose: 0.86 mg/kg/injection, schedule: Q04DX003 (ip), vehicle: water 119 % of control | dose: 1.44 mg/kg/injection, schedule: Q04DX003 (ip), vehicle: water 118 % of control | dose: 2.4 mg/kg/injection, schedule: Q04DX003 (ip), vehicle: water 113 % of control
